Data as given in patent US12472177B2, “Bicyclic compounds and methods for their use in treating Pitt Hopkins syndrome” (NEUREN PHARMACEUTICALS LIMITED, priority 2019, dated 2025).

Legend:
Format in all cases: in vivo, mouse
Tcf4^+/− mice [1] = test: Self grooming (repetitive behavior); parameters: key to Self-Grooming/Repetitive Behavior: Tukey’s Multiple Comparison Test Summary: **** = p < 0.00001; ns = not significant
Experimental: (§1) In vivo behavioral studies were conducted in Tcf4^+/− mutant and wildtype littermate control (WT) mice by Gen.DDI (Santiago, Chile). Littermate controls consist of the genotypes Tcf4^+/+. All Tcf4 mutant mice used were heterozygous for the Tcf4 mutation because homozygous mutations of Tcf4 result in embryonic to postnatal day 1 lethality. Ten mice per treatment group, 14 weeks of age, were used for behavioral experiments. Experiments were conducted in line with the requirements of the UK Animals (Scientific Procedures) Act, 1986. The mice were housed in plastic cages (35×30×12 cm), 5 in each and habituated to the animal facilities for at least a week before commencing the test. The room temperature (21° C.±2° C.), relative humidity (55%±5%), a 12-hour light-dark cycle (lights on 7 AM to 7 PM), and air exchange were automatically controlled. The animals had free access to commercial food pellets and water. Testing was performed during the light phase of the circadian cycle, with the order of testing being determined by the principle of conducting the most stressful tests last. Assays were designed to reproduce and expand on the original behavioral characterization of Tcf4^+/− mice. Tcf4^+/− and WT control mice were treated for 6 weeks prior to testing and tested 30 minutes following a dose of cG-2-AllylP, as described in Table 2 below.
Repetitive self-grooming is a feature of mice. Tcf4^+/− mice show an increased amount of self-grooming compared to wild type mice. To see if NNZ-2591 (cG-2-AllylP) can normalize self-grooming behavior in Tcf4^+/− mice, we carried out a series of studies, as shown in FIG. 3.
The amount of time spent grooming in seconds during a 10-minute test period is shown on the vertical axis, and the animals and treatments are shown on the horizontal axis. Wild type (WT) mice treated with vehicle alone (left column) self-groomed for about 110 sec. […] This difference was not statistically significant. […] This statistically significant finding was completely unexpected in Tcf4^+/− mice.

Tcf4^+/− mice [2] = test: Fear conditioning (time freezing); parameters: key to Fear Conditioning: Tukey’s Multiple Comparisons Test Summary: **** = p < 0.00001; ns = not significant
Experimental: as §1
Fear conditioning to either an event or a context represents a form of associative learning that has been well studied in many species. In mice, fear is often shown as stopping movement, also known as freezing behavior. Freezing is adaptive for prey species because predators often locate moving prey. The dependent measure used in contextual (delay) fear conditioning is a freezing response that takes place following pairing of an unconditioned stimulus (foot shock), with a conditioned stimulus (CS; e.g., an audible tone), a particular context and/or such a cue. If in a conditioning context one administers a foot shock that is paired with a tone, there will be learning not only to the tone, but also to the context.
Contextual fear conditioning is a basic conditioning procedure. It involves taking an animal and placing it in a novel environment, providing an aversive stimulus, and then removing it. […] Freezing is a response to fear, which has been defined as “absence of movement except for respiration.” This freezing behavior may last from seconds to minutes depending on the strength of the aversive stimulus, the number of presentations, and the degree of learning achieved by the subject.
Animals with the Tcf4^+/− mutation show less freezing behavior than wild type mice. This maladaptive behavior can have serious consequences. Therefore, to determine if NNZ-2591 (cG-2-AllylP) can restore normal fear conditioning in Tcf4^+/− mice, we carried out a series of studies.
The percent of time spent in freezing over a 5-minute test period is shown on the vertical axis of FIG. 4. Animals and their treatments are shown on the horizontal axis.

Tcf4^+/− mice [3] = test: Hind limb force (motor performance); parameters: key to Test of Force (Hind Limb): Tukey’s Muliple Comparison Test Summary: **** = p < 0.00001; ns = not significant
Experimental: as §1
Hind limb force is an important measure of the ability of a mouse to jump away from a predator. However, animals with the Tcf4^+/− mutation have substantially lower ability to jump away from a predator, making this mutation very serious and potentially life threatening. Hind limb force is also considered a surrogate for motor function in humans. To determine if NNZ-2591 (cG-2-AllylP) might provide a helpful treatment for this condition, we carried out a series of studies in which we measured hind limb force.

[4] = Tcf4^+/− + cG-2-AllylP (100 mg/kg) vs Tcf4^+/− + cG-2-AllylP (200 mg/kg)
[5] = Tcf4^+/− + cG-2-AllylP (100 mg/kg) vs WT + cG-2-AllylP (200 mg/kg)
[6] = Tcf4^+/− + vehicle vs Tcf4^+/− + cG-2-AllylP (100 mg/kg)
[7] = Tcf4^+/− + vehicle vs Tcf4^+/− + cG-2-AllylP (200 mg/kg)
[8] = Tcf4^+/− + vehicle vs WT + cG-2-AllylP (100 mg/kg)
[9] = Tcf4^+/− + vehicle vs WT + cG-2-AllylP (200 mg/kg)
[10] = Tcf4^+/− mice, 100 mg/kg oral BID 6 weeks, 100 mg/kg
[11] = WT + cG-2-AllylP (100 mg/kg) vs Tcf4^+/− + cG-2-AllylP (100 mg/kg)
[12] = WT + cG-2-AllylP (100 mg/kg) vs Tcf4^+/− + cG-2-AllylP (200 mg/kg)
[13] = WT + cG-2-AllylP (100 mg/kg) vs WT + cG-2-AllylP (200 mg/kg)
[14] = WT + cG-2-AllylP (200 mg/kg) vs Tcf4^+/− + cG-2-AllylP (200 mg/kg)
[15] = WT + vehicle vs Tcf4^+/− + cG-2-AllylP (100 mg/kg)
[16] = WT + vehicle vs Tcf4^+/− + cG-2-AllylP (200 mg/kg)
[17] = WT + vehicle vs WT + cG-2-AllylP (100 mg/kg)
[18] = WT + vehicle vs WT + cG-2-AllylP (200 mg/kg)
[19] = WT mice, 100 mg/kg oral BID 6 weeks
[20] = WT mice, 200 mg/kg oral BID 6 weeks

## C=CC[C@]12CCCN1C(=O)CNC2=O [cG-2-AllylP, (8aS)-Allyl-hexahydropyrrolo[1,2-a]pyrazine-1,4-dione]
Tcf4^+/− mice [1]; [4]
  Self-Grooming/Repetitive Behavior: Tukey’s Multiple Comparison Test Summary: ns
Tcf4^+/− mice [1]; [5]
  Self-Grooming/Repetitive Behavior: Tukey’s Multiple Comparison Test Summary: ns
Tcf4^+/− mice [1]; [6]
  Self-Grooming/Repetitive Behavior: Tukey’s Multiple Comparison Test Summary: **** (**** = p < 0.0001)
Tcf4^+/− mice [1]; [7]
  Self-Grooming/Repetitive Behavior: Tukey’s Multiple Comparison Test Summary: **** (**** = p < 0.0001)
Tcf4^+/− mice [1]; [8]
  Self-Grooming/Repetitive Behavior: Tukey’s Multiple Comparison Test Summary: **** (**** = p < 0.0001)
Tcf4^+/− mice [1]; [9]
  Self-Grooming/Repetitive Behavior: Tukey’s Multiple Comparison Test Summary: **** (**** = p < 0.0001)
Tcf4^+/− mice [1]; Tcf4^+/− mice, 100 mg/kg
  Behavior Normalized to WildType Levels: Self-groom: ✓
Tcf4^+/− mice [1]; [10]
  Time spent self-grooming during a 10-minute test period: corrected
Tcf4^+/− mice [1]; Tcf4^+/− mice, 100 mg/kg oral BID 6 weeks, listed as NNZ-2591, 100 mg/kg
  Time spent self-grooming during a 10-minute test period: about the same amount of time self-grooming as WT vehicle treated mice
Tcf4^+/− mice [1]; Tcf4^+/− mice, 200 mg/kg
  Behavior Normalized to WildType Levels: Self-groom: ✓
Tcf4^+/− mice [1]; Tcf4^+/− mice, 200 mg/kg oral BID 6 weeks, 200 mg/kg
  Time spent self-grooming during a 10-minute test period: corrected
Tcf4^+/− mice [1]; Tcf4^+/− mice, 200 mg/kg oral BID 6 weeks, listed as NNZ-2591, 200 mg/kg
  Time spent self-grooming during a 10-minute test period: about the same amount of time self-grooming as WT vehicle treated mice
Tcf4^+/− mice [1]; [11]
  Self-Grooming/Repetitive Behavior: Tukey’s Multiple Comparison Test Summary: ns
Tcf4^+/− mice [1]; [12]
  Self-Grooming/Repetitive Behavior: Tukey’s Multiple Comparison Test Summary: ns
Tcf4^+/− mice [1]; [13]
  Self-Grooming/Repetitive Behavior: Tukey’s Multiple Comparison Test Summary: ns
Tcf4^+/− mice [1]; [14]
  Self-Grooming/Repetitive Behavior: Tukey’s Multiple Comparison Test Summary: ns
Tcf4^+/− mice [1]; [15]
  Self-Grooming/Repetitive Behavior: Tukey’s Multiple Comparison Test Summary: ns
Tcf4^+/− mice [1]; [16]
  Self-Grooming/Repetitive Behavior: Tukey’s Multiple Comparison Test Summary: ns
Tcf4^+/− mice [1]; [17]
  Self-Grooming/Repetitive Behavior: Tukey’s Multiple Comparison Test Summary: ns
Tcf4^+/− mice [1]; [18]
  Self-Grooming/Repetitive Behavior: Tukey’s Multiple Comparison Test Summary: ns
Tcf4^+/− mice [1]; [19]
  Time spent self-grooming during a 10-minute test period: about the same amount of time as did WT mice treated with vehicle alone
Tcf4^+/− mice [2]; [4]
  Fear Conditioning: Tukey’s Multiple Comparisons Test Summary: *** (*** = p < 0.001)
Tcf4^+/− mice [2]; [5]
  Fear Conditioning: Tukey’s Multiple Comparisons Test Summary: **** (**** = p < 0.0001)
Tcf4^+/− mice [2]; [6]
  Fear Conditioning: Tukey’s Multiple Comparisons Test Summary: **** (**** = p < 0.0001)
Tcf4^+/− mice [2]; [7]
  Fear Conditioning: Tukey’s Multiple Comparisons Test Summary: **** (**** = p < 0.0001)
Tcf4^+/− mice [2]; [8]
  Fear Conditioning: Tukey’s Multiple Comparisons Test Summary: **** (**** = p < 0.0001)
Tcf4^+/− mice [2]; [9]
  Fear Conditioning: Tukey’s Multiple Comparisons Test Summary: **** (**** = p < 0.0001)
Tcf4^+/− mice [2]; [10]
  Time spent in freezing behavior over a 5-minute test period: improved but remained significantly different to Wild Type
Tcf4^+/− mice [2]; Tcf4^+/− mice, 200 mg/kg
  Behavior Normalized to WildType Levels: Fear Con: ✓
Tcf4^+/− mice [2]; [11]
  Fear Conditioning: Tukey’s Multiple Comparisons Test Summary: ns
Tcf4^+/− mice [2]; [12]
  Fear Conditioning: Tukey’s Multiple Comparisons Test Summary: nx
Tcf4^+/− mice [2]; [13]
  Fear Conditioning: Tukey’s Multiple Comparisons Test Summary: ns
Tcf4^+/− mice [2]; [14]
  Fear Conditioning: Tukey’s Multiple Comparisons Test Summary: ns
Tcf4^+/− mice [2]; [15]
  Fear Conditioning: Tukey’s Multiple Comparisons Test Summary: * (* = p < 0.05)
Tcf4^+/− mice [2]; [16]
  Fear Conditioning: Tukey’s Multiple Comparisons Test Summary: ns
Tcf4^+/− mice [2]; [17]
  Fear Conditioning: Tukey’s Multiple Comparisons Test Summary: ns
Tcf4^+/− mice [2]; [18]
  Fear Conditioning: Tukey’s Multiple Comparisons Test Summary: ns
Tcf4^+/− mice [2]; [19]
  Time spent in freezing behavior over a 5-minute test period: about the same amount of time in freezing behavior as did vehicle-treated WT mice
Tcf4^+/− mice [2]; [20]
  Time spent in freezing behavior over a 5-minute test period: about the same amount of time in freezing behavior as did vehicle-treated WT mice
Tcf4^+/− mice [3]; [4]
  Test of Force (Hind Limb): Tukey’s Muliple Comparison Test Summary: ns
Tcf4^+/− mice [3]; [5]
  Test of Force (Hind Limb): Tukey’s Muliple Comparison Test Summary: ns
Tcf4^+/− mice [3]; [6]
  Test of Force (Hind Limb): Tukey’s Muliple Comparison Test Summary: **** (**** = p <0.00001)
Tcf4^+/− mice [3]; [7]
  Test of Force (Hind Limb): Tukey’s Muliple Comparison Test Summary: **** (**** = p <0.00001)
Tcf4^+/− mice [3]; [8]
  Test of Force (Hind Limb): Tukey’s Muliple Comparison Test Summary: **** (**** = p <0.00001)
Tcf4^+/− mice [3]; [9]
  Test of Force (Hind Limb): Tukey’s Muliple Comparison Test Summary: **** (**** = p <0.00001)
Tcf4^+/− mice [3]; Tcf4^+/− mice, 100 mg/kg
  Behavior Normalized to WildType Levels: Force: ✓
Tcf4^+/− mice [3]; Tcf4^+/− mice, 100 mg/kg oral BID 6 weeks
  Hind limb force: nearly identical to those produced by WT mice
Tcf4^+/− mice [3]; Tcf4^+/− mice, 200 mg/kg
  Behavior Normalized to WildType Levels: Force: ✓
Tcf4^+/− mice [3]; Tcf4^+/− mice, 200 mg/kg oral BID 6 weeks
  Hind limb force: nearly identical to those produced by WT mice
Tcf4^+/− mice [3]; [11]
  Test of Force (Hind Limb): Tukey’s Muliple Comparison Test Summary: ns
Tcf4^+/− mice [3]; [12]
  Test of Force (Hind Limb): Tukey’s Muliple Comparison Test Summary: ns
Tcf4^+/− mice [3]; [13]
  Test of Force (Hind Limb): Tukey’s Muliple Comparison Test Summary: ns
Tcf4^+/− mice [3]; [14]
  Test of Force (Hind Limb): Tukey’s Muliple Comparison Test Summary: ns
Tcf4^+/− mice [3]; [15]
  Test of Force (Hind Limb): Tukey’s Muliple Comparison Test Summary: ns
Tcf4^+/− mice [3]; [16]
  Test of Force (Hind Limb): Tukey’s Muliple Comparison Test Summary: ns
Tcf4^+/− mice [3]; [17]
  Test of Force (Hind Limb): Tukey’s Muliple Comparison Test Summary: ns
Tcf4^+/− mice [3]; [18]
  Test of Force (Hind Limb): Tukey’s Muliple Comparison Test Summary: ns
Tcf4^+/− mice [3]; [19]
  Hind limb force: about the same levels of force as vehicle-treated WT mice
Tcf4^+/− mice [3]; [20]
  Hind limb force: about the same levels of force as vehicle-treated WT mice
